Biological target: T1, Dihydrofolate reductase (Pneumocystis jirovecii, UniProt Q9UUP5)
T1 sequence (Q9UUP5 whole entry): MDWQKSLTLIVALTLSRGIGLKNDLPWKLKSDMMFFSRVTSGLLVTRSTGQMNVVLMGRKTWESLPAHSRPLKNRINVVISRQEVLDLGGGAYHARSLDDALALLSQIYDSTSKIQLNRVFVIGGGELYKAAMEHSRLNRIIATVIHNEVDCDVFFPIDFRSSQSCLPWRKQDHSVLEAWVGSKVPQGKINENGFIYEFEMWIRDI
Test: Kinase Inhibition Assay

Structure (SMILES)	IC50 [nM]
COc1ccc(Sc2sc3nc(N)nc(N)c3c2C)cc1OC [US11111252, Compound 1]	260
COc1ccc(Sc2c(C)c3c(N)nc(N)nc3n2C)cc1OC [US11111252, Compound 9]	234
